Measured values: PubChem BioAssay (NCI)
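Each compound was tested at five concentrations against cells in 96-well plates for 48 hours. At the GI50, growth is halved. At the TGI there is no net growth.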

Experiments:
Experiment in all cases: DTP human tumour cell line panel, 48 h
[1] = test system: SF-268 CNS
[2] = test system: NCI-H23 lung
[3] = test system: OVCAR-8 ovarian
[4] = test system: MCF7 breast
[5] = test system: SN12C renal
[6] = test system: LOX IMVI melanoma
[7] = test system: M14 melanoma
[8] = test system: SF-539 CNS
[9] = test system: SW-620 colon
[10] = test system: HCT-116 colon

Cc1ccc(C(=O)Nc2ccc(CP(=O)(O)O)cc2)cc1NC(=O)c1cccc(N)c1
TGI [1]: > 100 µM | TGI [2]: > 100 µM | TGI [3]: > 100 µM | TGI [4]: > 100 µM | TGI [5]: > 100 µM | TGI [6]: > 100 µM | TGI [7]: > 100 µM | TGI [8]: > 100 µM | TGI [9]: > 100 µM | TGI [10]: > 100 µM

COc1ccc2c3c(Nc4cccc(/C(C)=N\O)c4)[nH]c4ccccc4c-3c(N=O)c2c1
GI50 [1]: > 100 µM | TGI [1]: > 100 µM | GI50 [2]: 0.752 µM | TGI [2]: 27.1 µM | GI50 [3]: 25.8 µM | TGI [3]: > 100 µM | GI50 [4]: 73.9 µM | TGI [4]: > 100 µM | GI50 [5]: 30 µM | TGI [5]: > 100 µM | GI50 [6]: 29.1 µM | TGI [6]: 67.7 µM | GI50 [7]: 29.9 µM | TGI [7]: > 100 µM | GI50 [8]: > 100 µM | TGI [8]: > 100 µM | GI50 [9]: 32.1 µM | TGI [9]: > 100 µM | GI50 [10]: 14.6 µM | TGI [10]: 34.2 µM

O=C1C=CC2OC(c3ccccc3)C(O)C2O1 (stereo not drawn)
TGI [1]: 15.6 µM | TGI [2]: 12.6 µM | TGI [3]: 20.2 µM | TGI [4]: 16.8 µM | TGI [5]: 22.9 µM | TGI [6]: 8.18 µM | TGI [8]: 14.1 µM | TGI [9]: 9.87 µM | TGI [10]: 10.6 µM

O=C(Nc1ccc(Cl)cc1C(F)(F)F)C(=O)C1CCCS1(=O)=O (stereo not drawn)
TGI [1]: > 100 µM | TGI [2]: > 100 µM | TGI [3]: > 100 µM | TGI [5]: > 100 µM | TGI [6]: > 100 µM | TGI [7]: > 100 µM | TGI [8]: > 100 µM | TGI [9]: > 10 µM | TGI [10]: > 100 µM

CCOC(=O)CC1COc2ccc3c(c21)OCO3 (stereo not drawn)
TGI [2]: > 100 µM | TGI [3]: > 100 µM | TGI [5]: > 100 µM | TGI [6]: > 100 µM | TGI [7]: > 100 µM | TGI [8]: > 100 µM | TGI [9]: > 100 µM | TGI [10]: > 100 µM

O=c1c2ccccc2[nH]n1Cc1ccccc1
TGI [1]: > 100 µM | TGI [2]: > 100 µM | TGI [3]: > 100 µM | TGI [4]: > 100 µM | TGI [5]: > 100 µM | TGI [6]: > 100 µM | TGI [7]: > 100 µM | TGI [8]: > 100 µM | TGI [9]: > 100 µM | TGI [10]: > 100 µM

COc1cc(OC)cc(-c2ccc(-c3ccc(C(=N)N)cn3)o2)c1
GI50 [1]: 1.86 µM | TGI [1]: 3.62 µM | GI50 [8]: 1.55 µM | TGI [8]: 2.9 µM | GI50 [9]: 1.67 µM | TGI [9]: 3.25 µM

O=C1c2ccccc2C(=O)N1CCSCC(CO)SCCN1C(=O)c2ccccc2C1=O (stereo not drawn)
TGI [1]: > 100 µM | TGI [2]: > 100 µM | TGI [3]: > 100 µM | TGI [4]: > 100 µM | TGI [5]: > 100 µM | TGI [6]: > 100 µM | TGI [7]: > 100 µM | TGI [9]: > 100 µM | TGI [10]: > 100 µM

Oc1ccc([C@H]2c3c(O)cc(O)cc3C3c4c(cc(O)cc4[C@@H]2[C@H]2c4cc(O)cc5c4C(c4cc(O)cc(O)c4[C@@H]2c2ccc(O)cc2)[C@@H](c2ccc(O)cc2)O5)O[C@@H]3c2ccc(O)cc2)cc1 (stereo partly drawn)
TGI [1]: > 100 µM | TGI [2]: > 100 µM | TGI [3]: > 100 µM | TGI [4]: > 100 µM | TGI [5]: > 100 µM | TGI [6]: > 100 µM | TGI [7]: > 100 µM | TGI [8]: 5.33 µM | TGI [10]: > 100 µM

Cc1cccc(Br)[n+]1[O-]
TGI [1]: > 100 µM | TGI [2]: > 100 µM | TGI [3]: > 100 µM | TGI [4]: > 100 µM | TGI [5]: > 100 µM | TGI [6]: > 100 µM | TGI [7]: > 100 µM | TGI [8]: > 100 µM | TGI [9]: > 100 µM | TGI [10]: > 100 µM

CC(CCC[C@H](C)CO)[C@H]1[C@@H](O)C(O)C2[C@@H]3C[C@@H](O)C4(O)C[C@@H](O)CC[C@]4(C)C3CC[C@@]21C (stereo partly drawn)
TGI [1]: > 100 µM | TGI [2]: > 100 µM | TGI [3]: > 100 µM | TGI [5]: > 100 µM | TGI [6]: > 100 µM | TGI [7]: > 100 µM | TGI [8]: > 100 µM | TGI [9]: > 100 µM | TGI [10]: > 100 µM

CC(=O)OC(CC1(C)C(C)CCC23COC(=O)C2=CCCC31)c1ccoc1 (stereo not drawn)
TGI [1]: 36.2 µM | TGI [2]: 54.5 µM | TGI [3]: 54.2 µM | TGI [5]: 71.8 µM | TGI [6]: 47.9 µM | TGI [7]: 33.9 µM | TGI [8]: 62.5 µM | TGI [9]: 66.8 µM | TGI [10]: 61.6 µM

CCOC(=O)NN(C(=O)OCC)C(C(=O)C1=CCCCC1)N(NC(=O)OCC)C(=O)OCC
TGI [1]: > 100 µM | TGI [2]: > 100 µM | TGI [3]: > 100 µM | TGI [4]: > 100 µM | TGI [5]: > 100 µM | TGI [6]: > 100 µM | TGI [7]: > 100 µM | TGI [8]: > 100 µM | TGI [9]: > 100 µM | TGI [10]: > 100 µM

CCOC(=O)Cn1c2ccccc2c(=O)c2cc(C)c(C)c(C#N)c21
TGI [1]: > 100 µM | TGI [2]: > 100 µM | TGI [3]: > 100 µM | TGI [5]: > 100 µM | TGI [6]: > 100 µM | TGI [8]: > 100 µM | TGI [9]: > 100 µM | TGI [10]: > 100 µM

CC(=O)Nc1ccc2nc(-c3ccccn3)c(-c3ccccn3)nc2c1
TGI [1]: > 100 µM | TGI [3]: > 100 µM | TGI [4]: > 100 µM | TGI [5]: > 100 µM | TGI [6]: > 100 µM | TGI [7]: > 100 µM | TGI [8]: > 100 µM | TGI [9]: > 100 µM

O=C1CSC(c2c[nH]c3ccccc23)N1c1ccc(Cl)cc1 (stereo not drawn)
TGI [1]: > 100 µM | TGI [2]: > 100 µM | TGI [3]: > 100 µM | TGI [4]: > 100 µM | TGI [5]: > 100 µM | TGI [7]: > 100 µM | TGI [8]: > 100 µM | TGI [9]: > 100 µM | TGI [10]: > 100 µM

CC(CC(N)C(=O)O)C(=O)O (stereo not drawn)
TGI [1]: > 100 µM | TGI [2]: > 100 µM | TGI [3]: > 100 µM | TGI [5]: > 100 µM | TGI [6]: > 100 µM | TGI [7]: > 100 µM | TGI [9]: > 100 µM | TGI [10]: > 100 µM

COC(=O)N1CC(=O)C(C(=O)NC23CC4CC(CC(C4)C2)C3)C1 (stereo not drawn)
TGI [1]: > 100 µM | TGI [2]: > 100 µM | TGI [3]: > 100 µM | TGI [4]: > 100 µM | TGI [7]: > 100 µM | TGI [8]: > 100 µM | TGI [9]: > 100 µM | TGI [10]: > 100 µM

COc1ccc(/C=C/C(=O)/C=C/c2ccc(OC)cc2OC)c(OC)c1
TGI [1]: 33.7 µM | TGI [2]: 43 µM | TGI [3]: 41.1 µM | TGI [5]: 65.2 µM | TGI [6]: 18.1 µM | TGI [7]: 36.2 µM | TGI [8]: 36.7 µM | TGI [9]: 83.6 µM | TGI [10]: 21.3 µM

S=C(NCCc1ccccn1)N/N=C/c1ccccn1
TGI [1]: > 100 µM | TGI [3]: > 100 µM | TGI [5]: 13.3 µM | TGI [6]: 22.5 µM | TGI [7]: 3.39 µM | TGI [8]: 3.59 µM | TGI [9]: > 100 µM | TGI [10]: < 0.01 µM

CCc1c2c(cc3c1CC1(C3)Cc3cc4c(c(C(=O)OC)c3C1)CCCC4)CCCC2 (stereo not drawn)
TGI [2]: > 100 µM | TGI [3]: > 100 µM | TGI [4]: > 100 µM | TGI [5]: > 100 µM | TGI [6]: > 100 µM | TGI [7]: > 100 µM | TGI [8]: > 100 µM | TGI [10]: 65.1 µM

O=P1(c2ccccc2)c2ccccc2-c2ccccc21
TGI [1]: > 100 µM | TGI [2]: > 100 µM | TGI [3]: > 100 µM | TGI [4]: > 100 µM | TGI [5]: > 100 µM | TGI [6]: > 100 µM | TGI [8]: > 100 µM | TGI [9]: > 100 µM | TGI [10]: > 100 µM
